“Also recorded” adds a separate entry of the source. Marks after values point to notes of the source that are not given here.
Key:
[1] = tested on: C57BL/6 mice with UUO surgical ligation; experiment: Example 2: UUO mice, kidney weight evaluation; type: in vivo; details: for Drained Left Kidney: ligated kidney drained; for Drained Left Kidney / Excised Left Kidney / Right Kidney (g): group mean, UUO, female C57BL/6 mice, PO QD days 1-14; for Excised Left Kidney: ligated kidney; for Right Kidney (g): unligated kidney
Experimental: (§1) In this example, healthy young female C57BL/6 mice were used for the study. At the commencement of the study, mice were between 9-12 weeks of age, weighing 23-25 g. All the mice were obtained from Charles River Laboratories.
(§2) The mice were maintained in a controlled environment with a temp 70-72° F., humidity 30-70%, with a photo cycle of 12 hours of light and 12 hours of dark. They were provided with Harlan Teklad 2018 standard maintenance mouse chow diet and drinking water ad libitium.
(§3) After five days of acclimatization, the mice were grouped according to their body weight. There were ten groups of ten mice each. Nine groups of ten mice each underwent UUO as described above and the other group of ten mice underwent a sham procedure to serve as a no-surgery control.
(§4) Following surgery, the mice were divided into 10 individual study groups of 10 mice each and, following post-surgical recovery, administered a once-daily oral treatment for 14 days. The mice in 8 of the 10 study groups had all received the UUO surgical ligation and were treated individually with a distinct pharmacologic compound as set out in Table 6. The mice in 2 of the 10 study groups were treated individually with a pharmaceutically acceptable vehicle with no active ingredient. The pharmaceutically acceptable vehicle in all groups was 0.5% carboxymethyl cellulose (CMC). All mice were sacrificed with CO2 on post-surgical day 15.
(§5) The dose selected for the animal studies was determined by taking the maximum known human daily dose, dividing by the average weight of an adult (˜60-70 kg) to get a human mg/kg dose. That number was multiplied by 12 to convert to a mouse dose based on conventional dosing tables. See Nair and Jacob, J Basic Clin Pharm March 2016-May 2016, 7(2):27-31.
Kidney weight: The UUO was then examined in situ to ensure that the surgical ligation ties remained patent. Both the ligated (UUO) and non-ligated kidneys were removed for analysis. Weights of both kidneys were measured using a laboratory balance.
(§6) The data are presented as the mean obtained from Microsoft Excel or GraphPad Prism version 5.00 for Windows (GraphPad Software, San Diego California USA). Data were analyzed using two-way ANOVA using Bonferroni and Tamhane post-tests. Differences between groups were considered significant at p<0.05.
Kidney Weight Evaluation: Kidney weight, which indicates functional and pathological changes in the kidney, was evaluated by measuring the weight of both the ligated (UUO) and non-ligated kidneys as previously described. The ligated and non-ligated kidney weights of each study group consisted of the respective kidney weight averages of all mice in each study group.

[2] = Example 2: UUO mice, mean body weight change following surgery; type: in vivo, C57BL/6 mice; details: for Mean Body Weight Change Following Surgery, Day 1 / Mean Body Weight Change Following Surgery, Day 4 / Mean Body Weight Change Following Surgery, Day 7 / Mean Body Weight Change Following Surgery, Day 10 / Mean Body Weight Change Following Surgery, Day 14: UUO, female C57BL/6 mice, PO QD days 1-14; for Body weight course after surgery, in words: Example 2
Experimental: as §1, §2, §3, §4, §5
Body weight: The body weights were measured on days 1, 4, 7, 10 and 14 using a laboratory balance.
Body weights were measured on post-surgical days 1, 4, 7, 10 and 14 as previously described. The mean body weight change of each study group was calculated using the body weight average of all mice in each study group.

[3] = tested on: C57BL/6 mice with UUO surgical ligation; experiment: Example 2: UUO mice, renal function evaluation (plasma BUN, creatinine); type: in vivo; details: for Level of BUN compared to vehicle or other agents, in words: mg/kg PO QD: Telmisartan 3, Bemithyl 200, Repirinast 30, Telmisartan+Bemithyl 3+200, Telmisartan+Repirinast 3+30, Cenicriviroc 40, Bromantane 40; for BUN / Creatinine: plasma at sacrifice day 15, group mean, UUO, female C57BL/6 mice, PO QD days 1-14
Experimental: as §1, §2, §3, §4, §5
Serum collection: A blood sample was then collected from all mice and plasma analyzed for urea nitrogen and creatinine. Plasma was stored at −80° C. for possible future analysis.
as §6
Renal Function Evaluation: Renal function and disease progression was evaluated by BUN (blood urea nitrogen) as previously described. The BUN of each study group consisted of the BUN average of all mice in each study group.

[4] = tested on: C57BL/6 mice with UUO surgical ligation; experiment: Example 2: UUO mice, renal fibrosis evaluation (Sirius Red histology score); type: in vivo; details: for Level of kidney fibrosis / histology score compared to vehicle or other agents, in words: mg/kg PO QD: Telmisartan 3, Bemithyl 200, Repirinast 30, Telmisartan+Bemithyl 3+200, Telmisartan+Repirinast 3+30, Cenicriviroc 40, Bromantane 40; for Histology Score: Sirius Red, 0=normal, 1=light, 2=moderate, 3=severe, group mean; for Histology Score / Reduction of fibrosis (%) (versus vehicle): UUO, female C57BL/6 mice, PO QD days 1-14; for Reduction of fibrosis (%) (versus vehicle): from histology score
Experimental: as §1, §2, §3, §4, §5
Histopathology: Formalin-fixed kidney cross-section samples were subjected histopathological scoring with Sirius Red staining, and imaged at a magnification of ×20, using standard techniques. All three sections were stained and evaluated. The analysis was performed by a board-certified veterinarian pathologist. The presence of interstitial damage and severity score was assessed according to the following criteria: 0=normal; 1=light; 2=moderate; 3=severe.
as §6
Renal Fibrosis Evaluation: Renal fibrosis and interstitial damage was evaluated by histochemical staining of renal cross-sections with Sirius Red as previously described. The Histology Score of each study group consisted of the histology score average of all mice in each study group.

[5] = mg/kg: Telmisartan 3, Bemithyl 200, Repirinast 30, Telmisartan+Bemithyl 3+200, Telmisartan+Repirinast 3+30, Cenicriviroc 40, Bromantane 40
[6] = mg/kg PO QD: Repirinast 30, Bemithyl 200, Bromantane 40, Telmisartan+Bemithyl 3+200
[7] = * significant vs vehicle Bonferroni, # Tamhane (p<0.05), mg/kg: Telmisartan 3, Bemithyl 200, Repirinast 30, Telmisartan+Bemithyl 3+200, Telmisartan+Repirinast 3+30, Cenicriviroc 40, Bromantane 40
[8] = Example 2, Repirinast 90 mg/kg PO QD

SMILES	Drained Left Kidney [1, 5]	Excised Left Kidney [1, 5]	Right Kidney (g) [1, 5]	Mean Body Weight Change Following Surgery, Day 1 [2, 5]	Mean Body Weight Change Following Surgery, Day 4 [2, 5]	Mean Body Weight Change Following Surgery, Day 7 [2, 5]	Mean Body Weight Change Following Surgery, Day 10 [2, 5]	Mean Body Weight Change Following Surgery, Day 14 [2, 5]	Body weight course after surgery, in words [2, 6]	Level of BUN compared to vehicle or other agents, in words ([3]; Example 2)	BUN [3, 7]	Creatinine [3, 5]	Level of kidney fibrosis / histology score compared to vehicle or other agents, in words ([4]; Example 2)	Histology Score [4, 5]	Reduction of fibrosis (%) (versus vehicle) [4, 5]	further results
CCSc1nc2ccccc2[nH]1 [Bemithyl, 2-Ethylsulfanyl-1H-benzoimidazole]	0.1565 g	0.398 g	0.1333* g	0 g	0.16 g	0.16 g	0.36 g	0.54 g	no initial decrease in body weight; also recorded: even greater than that of the sham surgery control group; also recorded: appeared to reverse the negative effects of UUO on body weight gain	significant reductions in the level of BUN compared to vehicle; also recorded: reduction in BUN compared to vehicle	19.4* mg/dL	0.20 mg/dL	significantly reduce the level of kidney fibrosis compared to vehicle; also recorded: significant improvement in kidney fibrosis	1.15**	52%	Weight of the drained left kidney compared to the vehicle group, in words ([1]; Example 2, Telmisartan 3 + Repirinast 30 mg/kg, Bemithyl 200 mg/kg): a similar effect was observed
Cc1ccc2c([nH]c(=O)c3c(=O)cc(C(=O)OCCC(C)C)oc32)c1C [Repirinast, 3-methylbutyl 7,8-dimethyl-4,5-dioxo-5,6-dihydro-4H-pyrano[3,2-c]quinoline-2-carboxylate]	0.1808 g	0.412 g	0.1468* g	0 g	0.34 g	0.35 g	0.83 g	0.86 g	no initial decrease in body weight	significant reductions in the level of BUN compared to vehicle	18.5*# mg/dL	0.20 mg/dL	statistically insignificant improvements	1.90	21%	Drained Left Kidney ([1]; Repirinast 90 mg/kg): 0.1648 g; Excised Left Kidney ([1]; Repirinast 90 mg/kg): 0.3681 g; Right Kidney (g) ([1]; Repirinast 90 mg/kg): 0.1378* g; Mean Body Weight Change Following Surgery, Day 1 ([2]; Repirinast 90 mg/kg): 0 g; Mean Body Weight Change Following Surgery, Day 4 ([2]; Repirinast 90 mg/kg): 0.31 g; Mean Body Weight Change Following Surgery, Day 7 ([2]; Repirinast 90 mg/kg): 0.60 g; Mean Body Weight Change Following Surgery, Day 10 ([2]; Repirinast 90 mg/kg): 0.86 g; Mean Body Weight Change Following Surgery, Day 14 ([2]; Repirinast 90 mg/kg): 1.08 g; Body weight course after surgery, in words ([2]; Repirinast 90 mg/kg PO QD): no initial decrease in body weight; also recorded: appeared to reverse the negative effects of UUO on body weight gain; Level of BUN compared to vehicle, in words [3, 8]: significant reductions in the level of BUN compared to vehicle; also recorded: reduction in BUN compared to vehicle; BUN ([3]; Repirinast 90 mg/kg): 17.6*# mg/dL; Creatinine ([3]; Repirinast 90 mg/kg): 0.20 mg/dL; Level of kidney fibrosis compared to vehicle, in words [4, 8]: significantly reduce the level of kidney fibrosis compared to vehicle; also recorded: significant improvement in kidney fibrosis; Histology Score ([4]; Repirinast 90 mg/kg): 1.19*#; Reduction of fibrosis (%) (versus vehicle) ([4]; Repirinast 90 mg/kg): 51%
Brc1ccc(NC2C3CC4CC(C3)CC2C4)cc1 (stereo not shown) [Bromantane, N-(4-Bromophenyl)adamantan-2-amine]	0.1775 g	0.3995 g	0.143* g	0 g	0.11 g	0.36 g	0.15 g	0.55 g	no initial decrease in body weight; also recorded: appeared to reverse the negative effects of UUO on body weight gain	significant reductions in the level of BUN compared to vehicle; also recorded: most effective compound tested; also recorded: superior to Telmisartan; also recorded: reduction in BUN compared to vehicle; also recorded: highest reductions in both fibrosis and BUN levels	17.3** mg/dL	0.20 mg/dL	significantly reduce the level of kidney fibrosis compared to vehicle; also recorded: greatest numerical reduction in the histology score; also recorded: superior to both Telmisartan; also recorded: significant improvement in kidney fibrosis; also recorded: highest reductions in both fibrosis and BUN levels	1.02*#	58%	

— US12280026B2, “Use of repirinast in the prophylaxis or treatment of renal fibrosis or kidney disease” (ALGERNON PHARMACEUTICALS INC., priority 2018, dated 2025)
